Reference: US20210038607A1, “OXADIAZOLYLTHIOPHENE DERIVATIVES USEFUL AS HISTONE DEACETYLASE INHIBITORS” (Karus Therapeutics Limited, priority 2018, published 2021)

What was measured:
[1] = tested on: acetylated histone H3 in A549 lung adenocarcinoma cells; test: Acetylated histone H3 in-cell western (ICW) assay; assay type: cell-based; conditions: Homo sapiens, 16 h exposure, relative to 40 μM Trichostatin A positive control, read-out: EC50 Ac-histone H3, A549 cells
How it was run: (§1)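 A549 cells exposed to compound for 16 h at 37 °C (0.4% DMSO final), then fixed and immunostained for acetylated α-tubulin or histone H3 with near-infrared detection, signal normalised to cell stain. Response expressed relative to DMSO controls and to 40 μM scriptaid (tubulin) or 40 μM TSA (H3); EC50 by constrained nonlinear regression.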

[2] = biological target: T1, Human HDAC1 (Homo sapiens, UniProt Q13547); test: HDAC1 biochemical assay, AMC-labeled peptide substrate; conditions: read-out: HDAC Isoform IC50 (nM) 1
T1 construct: full length with C-terminal His-tag and C-terminal FLAG-tag; His (C); FLAG (C); host or cells: baculovirus expression system
How it was run: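 Baculovirus-expressed full-length human HDAC1 with His and FLAG tags, 0.3 ng/ul, incubated 1 h at 30° C with compound and 50 μM RHKK(Ac)AMC in Tris pH 8.0 buffer with BSA and 1% DMSO. Developer then releases AMC from deacetylated substrate; fluorescence read at 360/460 nm.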

[3] = tested on: acetylated α-tubulin in A549 lung adenocarcinoma cells; test: Acetylated α-tubulin in-cell western (ICW) assay; assay type: cell-based; conditions: Homo sapiens, 16 h exposure, relative to 40 μM scriptaid positive control, read-out: EC50 Ac-α-tubulin, A549 cells
How it was run: as §1

[4] = biological target: T2, Human HDAC7 (Homo sapiens, UniProt Q8WUI4); test: HDAC7 biochemical assay, class IIa-specific substrate; conditions: read-out: HDAC Isoform IC50 (nM) 7
T2 construct: (a.a. 518-end) with N-terminal GST tag; GST (N); host or cells: baculovirus expression system
T2 sequence (Q8WUI4 518-952 limits assumed): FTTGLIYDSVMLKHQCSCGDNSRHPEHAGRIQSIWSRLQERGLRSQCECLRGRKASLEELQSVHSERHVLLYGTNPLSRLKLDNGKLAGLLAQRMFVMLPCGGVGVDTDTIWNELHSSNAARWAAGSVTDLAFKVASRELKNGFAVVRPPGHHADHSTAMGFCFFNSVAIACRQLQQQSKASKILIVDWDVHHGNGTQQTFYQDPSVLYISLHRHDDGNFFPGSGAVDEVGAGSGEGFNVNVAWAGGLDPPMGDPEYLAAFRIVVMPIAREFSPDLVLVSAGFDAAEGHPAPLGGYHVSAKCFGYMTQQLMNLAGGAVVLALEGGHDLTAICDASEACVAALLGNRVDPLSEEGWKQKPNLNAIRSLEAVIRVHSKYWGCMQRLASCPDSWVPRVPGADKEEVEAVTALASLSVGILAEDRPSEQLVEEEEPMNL
How it was run: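 GST-tagged HDAC7 (a.a. 518-end, baculovirus-expressed) at 0.001 ng/ul with 50 μM Boc-Lys(trifluoroacetyl)-AMC substrate, 30 min at room temperature in pH 8.0 Tris buffer with BSA, 1% DMSO final. Developer then releases AMC; fluorescence read at 360/460 nm.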

T1 sequence (Q13547 whole entry, canonical isoform): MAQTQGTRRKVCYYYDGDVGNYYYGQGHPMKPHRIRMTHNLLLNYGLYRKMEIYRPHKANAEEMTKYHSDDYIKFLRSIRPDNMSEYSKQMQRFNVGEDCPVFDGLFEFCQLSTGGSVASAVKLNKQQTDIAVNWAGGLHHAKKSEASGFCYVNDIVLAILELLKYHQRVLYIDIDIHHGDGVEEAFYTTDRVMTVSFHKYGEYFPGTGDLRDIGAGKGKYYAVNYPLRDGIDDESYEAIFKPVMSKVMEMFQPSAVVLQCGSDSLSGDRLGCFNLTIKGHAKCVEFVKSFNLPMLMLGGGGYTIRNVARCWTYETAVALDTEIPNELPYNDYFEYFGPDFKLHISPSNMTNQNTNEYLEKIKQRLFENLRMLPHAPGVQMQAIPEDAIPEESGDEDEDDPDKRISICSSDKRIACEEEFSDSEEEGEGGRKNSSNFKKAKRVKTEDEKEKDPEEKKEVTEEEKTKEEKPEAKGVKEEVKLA

EC50 [1] [µM]	IC50 [2] [nM]	EC50 [3] [µM]	IC50 [4] [nM]	SMILES
≥ 10	≤ 10000	≤ 1	≤ 500	O=C(c1ccc(N(Cc2ccc(-c3noc(C(F)(F)F)n3)s2)c2cnccn2)nn1)N1CCCC1 [Example FI, N-(Pyrazin-2-yl)-6-(pyrrolidine-1-carbonyl)-N-({5-[5-(trifluoromethyl)-1,2,4-oxadiazol-3-yl]thiophen-2-yl}methyl)pyridazin-3-amine]
≥ 10	> 10000	≤ 1	≤ 10000	O=C(c1cnnc(N(Cc2ccc(-c3noc(C(F)(F)F)n3)s2)c2cnccn2)c1)N1CCCC1 [Example EA, N-(Pyrazin-2-yl)-5-(pyrrolidine-1-carbonyl)-N-({5-[5-(trifluoromethyl)-1,2,4-oxadiazol-3-yl]thiophen-2-yl}methyl)pyridazin-3-amine]
≥ 10	≤ 10000	≤ 1	≤ 500	COC1CN(C(=O)c2ccc(N(Cc3ccc(-c4noc(C(F)(F)F)n4)s3)c3cnccn3)nn2)C1 [Example DR, 6-(3-Methoxyazetidine-1-carbonyl)-N-(pyrazin-2-yl)-N-({5-[5-(trifluoromethyl)-1,2,4-oxadiazol-3-yl]thiophen-2-yl}methyl)pyridazin-3-amine]
≥ 10	> 10000	≤ 1	≤ 1000	O=C(c1cnnc(N(Cc2ccc(-c3noc(C(F)(F)F)n3)s2)c2cnccn2)c1)N1CC(C(F)(F)F)C1 [Example GJ, N-(Pyrazin-2-yl)-N-({5-[5-(trifluoromethyl)-1,2,4-oxadiazol-3-yl]thiophen-2-yl}methyl)-5-[3-(trifluoromethyl)azetidine-1-carbonyl]pyridazin-3-amine]

SMILES	EC50 [1] [µM]	IC50 [2] [nM]	EC50 [3] [µM]	IC50 [4] [nM]
[O-][S+]1CCN(Cc2ccc(N(Cc3ccc(-c4noc(C(F)(F)F)n4)s3)c3cnccn3)nn2)CC1 [Example FO, 4-({6-[(Pyrazin-2-yl)({5-[5-(trifluoromethyl)-1,2,4-oxadiazol-3-yl]thiophen-2-yl}methyl)amino]pyridazin-3-yl}methyl)-1lambda4-thiomorpholin-1-one]	≥ 10	> 10000	≤ 1	≤ 1000
